IC50 data for six molecules are collected here from ChEMBL document CHEMBL5357073, “Novel Heterocyclic PAD4 Inhibitors for Treating Multiple Diseases” (ACS Med Chem Lett, 2024).

Protein-arginine deiminase type-4, sequence (Q9UM07 whole entry): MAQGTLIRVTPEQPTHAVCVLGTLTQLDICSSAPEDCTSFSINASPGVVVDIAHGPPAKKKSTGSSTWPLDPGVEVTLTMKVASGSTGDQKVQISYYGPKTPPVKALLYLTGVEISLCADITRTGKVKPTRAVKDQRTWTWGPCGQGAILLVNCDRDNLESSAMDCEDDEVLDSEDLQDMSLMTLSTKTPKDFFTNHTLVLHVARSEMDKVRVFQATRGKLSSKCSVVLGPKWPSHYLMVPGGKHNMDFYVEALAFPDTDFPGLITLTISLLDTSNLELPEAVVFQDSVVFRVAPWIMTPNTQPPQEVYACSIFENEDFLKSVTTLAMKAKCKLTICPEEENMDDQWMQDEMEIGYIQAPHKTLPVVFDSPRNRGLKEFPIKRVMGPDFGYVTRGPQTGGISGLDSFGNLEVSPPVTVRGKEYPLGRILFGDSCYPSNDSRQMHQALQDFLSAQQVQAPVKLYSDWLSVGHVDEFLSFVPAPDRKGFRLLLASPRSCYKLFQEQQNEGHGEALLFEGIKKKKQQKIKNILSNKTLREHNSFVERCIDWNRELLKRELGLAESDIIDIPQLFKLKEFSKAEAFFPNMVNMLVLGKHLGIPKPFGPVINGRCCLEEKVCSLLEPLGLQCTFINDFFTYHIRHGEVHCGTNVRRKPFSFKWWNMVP

The assay concerns the target Protein-arginine deiminase type-4 (Homo sapiens, UniProt Q9UM07). The experiment in a line: Inhibition of human recombinant PAD4 using TSTGGRQGSHH peptide as substrate preincubated for 30 mins followed by substrate addition and measured after 90 mins by RapidFire mass spectroscopy analysis.
For `Cn1c(-c2cc3cccc(OCCn4cnnn4)c3n2CC2CC2)nc2cc3c(cc21)CCN(CC(N)CF)C3=O` (stereo unspecified), the IC50 is at most 10 nM.

Take `COC(=O)N(C)CCOc1cccc2cc(-c3nc4cc5c(cc4n3C)CCN(CC(N)CF)C5=O)n(CC3CC3)c12` (stereo unspecified): the IC50 is at most 10 nM.

As to `Cn1c(-c2cc3cccc(OCCn4ccnc4)c3n2CC2CC2)nc2cc3c(cc21)CCN(CC(N)CF)C3=O` (stereo unspecified), the half-maximal inhibitory concentration (IC50) is at most 10 nM. The result for `Cn1c(-c2cc3cccc(OCCc4cnoc4)c3n2CC2CC2)nc2cc3c(cc21)CCN(CC(N)CF)C3=O` (stereo unspecified) reads at most 10 nM; that for `Cn1c(-c2cc3cccc(OCC4CNC(=O)O4)c3n2CC2CC2)nc2cc3c(cc21)CCN(CC(N)CF)C3=O` (stereo unspecified), at most 10 nM; that for `Cn1c(-c2cc3cccc(OCCn4cncn4)c3n2CC2CC2)nc2cc3c(cc21)CCN(CC(N)CF)C3=O` (stereo unspecified), at most 10 nM.
